From patent US6921824B1, “Ruthenium dimeric complexes suitable as antimetastatic and antineoplastic agents” (priority 1999, dated 2005)
Marks after values point to notes of the source that are not given here.

Key:
MCa mammary carcinoma = assay: Post-surgical treatment: inhibition of lung metastases at advanced stage of growth, MCa mammary carcinoma; format: in vivo, CBA mice; conditions: for Lung metastases Number % T/C / Lung metastases weight % T/C: Treated/Control; for Lung metastases Number / Lung metastases Weight: evaluated day 28; for Growth of the lung metastases (in words): post-surgical treatment at LD0.05 dosages
Procedure: In vivo testing of the activity of the compounds according to the present invention in mice affected by MCa mammary carcinoma: inhibition activity of lung metastases at an advanced stage of growth.
Five groups of CBA kin female mice weighing 23±3 g were inoculated with […] viable MCa mammary carcinoma cells (as determined by trypan blue exclusion) in 0.05 ml Dulbecco's pH 7.4 buffered calcium- and magnesium-free solution (PBS) by intramuscular injection with a sterile insulin syringe. The tumour cells were derived from donors of the same strain injected with the same tumour cells and with the same procedures 2 weeks before. The suspension of tumour cells was prepared in PBS by mechanical mincing of the tumour mass obtained from donor mice, and further removal of tissue debris and cells was obtained, respectively, by filtration through a double layer of sterile gauze and centrifugation at 250× g for 10 minutes. Kin animals were obtained from a colony from Chester Beatthy from London (UK) and were grown in the University of Trieste animal house accordingly to the procedures accepted for the rearing of kin animals. The MCa mammary carcinoma tumour cell-line was derived from a stock, stored in liquid nitrogen, of tumour cells originally obtained from Rudjer Boskovic Institute of Zagreb (HR).
On day 14 since tumour cells implantation, the primary tumour was surgically removed, after general anesthesia of the animals by intraperitoneal injection of 125 mg/kg of Ketamine.
From day 15 to day 20 after tumour cells implantation, the five mice groups were treated, intraperitoneally with a sterile insulin syringe, respectively with: • Group 1 Control (7 animals): 10 ml/kg of body weight/day of sterile and pyrogen-free physiological solution; • Group 2 (7 animals): 28 mg/kg of body weight/day of the compound as prepared in Example 4 in sterile and pyrogen-free physiological solution; • Group 3 (7 animals): 28 mg/kg of body weight/day of the compound as prepared in Example 7 in sterile and pyrogen-free physiological solution; • Group 4 (7 animals): 51 mg/kg of body weight/day of the compound as prepared in Example 8 in sterile and pyrogen-free physiological solution; • Group 5 (7 animals): 52 mg/kg of body weight/day of the compound as prepared in Example 10 in sterile and pyrogen-free physiological solution.
(§1) The dosages corresponding to the LD0.05, calculated separately in animals of the same strain and gender and having the same body weight, was administered intraperitoneally for 6 consecutive days, according to the method of Lichtfield and Wilcoxon, and with an observation time of 10 days since last dose.
On day 28 since tumour cells implantation, the mice were sacrificed by cervical dislocation for the evaluation of lung metastases. The lungs were abducted from the animals immediately after sacrifice, divided in single lobes that were soon examined with a low-magnification microscope equipped with a graduated ocular-grid for the measurement of metastases size, where the orthogonal axes a and b (a≦b) were identified. The metastases were then classified by size and the metastatic tumour weight for each animal was calculated as the sum of each single metastasis weight, each of them considered as a rotation solid developed around the above mentioned axes according to the formula (π/6)·a^2·b. The experimental data obtained were then processed by appropriate statistical tests.
The results are reported in Table 2, where the number and weight of lung metastases obtained in groups of animals treated with the compounds of the present invention with respect to the group of controls treated with sterile and pyrogen-free physiological solution, are shown.

[1] = tested on: murine TS/A adenocarcinoma cells; assay: In vitro cytotoxicity, SRB test (protein synthesis); format: cell-based; conditions: for Antiproliferative activity (in words): SRB and MTT, up to 72 h
Procedure: In vitro cytotoxicity of complexes of the present invention on murine TS/A adenocarcinoma cells.
4×10^3 murine TS/A adenocarcinoma cells resuspended in 200 μl RPMI-1640 medium supplemented with 10% FCS (fetal calf serum), 2 mM glutamine and 50 μg/ml gentamicin sulphate, were seeded in a 96-wells plate. After 24 hours incubation at 37° C., in 5% CO2, the complexes as described in example 4 (A), in example 7 (B), in example 8 (C) and in example 10 (D), each solubilised in RPMI-1640 medium supplemented with 5% FCS, 2 mM glutamine and 50 μg/ml gentamicin sulphate, were added to the cells, each at a final concentration of 10^−4, 10^−5 and 10^−6 M. Cell viability tests were performed after 24, 48 and 72 hours of exposure to the compounds by assessing both the effect on protein synthesis and on mitochondrial activity by means of colorimetric assays, respectively the solphorodamine B test (SRB) and the MTT analysis. Each value (optical density) is the average percentage ±S.E. versus the untreated controls.
Values such as *p<0.05, **p<0.01 indicate average values statistically different from the controls. Analysis of Variance and Dunnet test were used in the comparison analysis.
The results are reported in Table 3, wherein both the effect on protein synthesis (SRB) and the mitochondrial activity (MTT) are reported for each complexes tested at different dosages after different exposure time.

[2] = LD0.05 determination, intraperitoneal treatment for 6 consecutive days (Lichtfield and Wilcoxon); format: in vivo; conditions: observation time 10 days since last dose
Procedure: as §1

[3] = 28 mg/kg of body weight/day i.p. day 15-20, post-surgical
[4] = 52 mg/kg of body weight/day i.p. day 15-20, post-surgical
[5] = 51 mg/kg of body weight/day i.p. day 15-20, post-surgical

Row | Compound | Lung metastases Number % T/C (MCa mammary carcinoma; [3]) [%] | Lung metastases weight % T/C (MCa mammary carcinoma; [3]) [%] | Lung metastases Number (MCa mammary carcinoma; [3]) | Lung metastases Weight (MCa mammary carcinoma; [3]) [mg] | Growth of the lung metastases (in words) (MCa mammary carcinoma) | SRB optical density, average percentage ±S.E. versus untreated controls ([1]; 10^−4 M, exposure time 24 h) | SRB optical density, average percentage ±S.E. versus untreated controls ([1]; 10^−4 M, exposure time 48 h) | SRB optical density, average percentage ±S.E. versus untreated controls ([1]; 10^−4 M, exposure time 72 h) | SRB optical density, average percentage ±S.E. versus untreated controls ([1]; 10^−5 M, exposure time 24 h) [%] | SRB optical density, average percentage ±S.E. versus untreated controls ([1]; 10^−5 M, exposure time 48 h) [%] | SRB optical density, average percentage ±S.E. versus untreated controls ([1]; 10^−5 M, exposure time 72 h) [%] | SRB optical density, average percentage ±S.E. versus untreated controls ([1]; 10^−6 M, exposure time 24 h) [%] | SRB optical density, average percentage ±S.E. versus untreated controls ([1]; 10^−6 M, exposure time 48 h) [%] | SRB optical density, average percentage ±S.E. versus untreated controls ([1]; 10^−6 M, exposure time 72 h) [%] | Antiproliferative activity (in words) [1] | LD0.05 [2] | also measured
1 | C[SH](C)(=O)[Ru-]([Cl])([Cl])([Cl])([Cl])[n+]1cc[n+]([Ru-]([Cl])([Cl])([Cl])([Cl])[SH](C)(C)=O)cc1.[Na+].[Na+] [Example 4, [Na]2[trans-RuCl4(Me2SO)]2(μ-pyz)] | 80 | 39 | 41.4 ± 8.0 | 96 ± 20 | reduce significantly | 32 ± 1** % | 51 ± 2** % | 66 ± 2** % | 99 ± 5 | 95 ± 1 | 95 ± 2 | 112 ± 3 | 102 ± 5 | 107 ± 2 | scarce and reversible | 28 mg/kg of body weight/day | 
2 | C[SH](C)(=O)[Ru-]([Cl])([Cl])([Cl])([Cl])[n+]1ccc[n+]([Ru-]([Cl])([Cl])([Cl])([Cl])[SH](C)(C)=O)c1.[Na+].[Na+] [Example 7, [Na]2[trans-RuCl4(Me2SO)]2(μ-pym)] | 78 | 44 | 40.4 ± 7.4 | 107 ± 31 | reduce significantly | 58 ± 2** % | 73 ± 8* % | 61 ± 2** % | 95 ± 9 | 108 ± 5 | 100 ± 1 | 101 ± 9 | 100 ± 3 | 95 ± 7 |  | 28 mg/kg of body weight/day | 
3 | C[SH](C)(=O)[Ru-]([Cl])([Cl])([Cl])([Cl])[n+]1ccc(CCc2cc[n+]([Ru-]([Cl])([Cl])([Cl])([Cl])[SH](C)(C)=O)cc2)cc1.[Na+].[Na+] [Example 10, [Na]2[trans-RuCl4(Me2SO)]2(μ-etbipy)] |  |  |  |  | reduce significantly | 47 ± 2** % | 62 ± 14** % | 73 ± 2** % | 81 ± 8 | 94 ± 3 | 95 ± 1 | 102 ± 9 | 81 ± 5 | 93 ± 5 |  | 52 mg/kg of body weight/day | Lung metastases Number % T/C (MCa mammary carcinoma; [4]): 53%; Lung metastases weight % T/C (MCa mammary carcinoma; [4]): 29%; Lung metastases Number (MCa mammary carcinoma; [4]): 27.8 ± 7.8; Lung metastases Weight (MCa mammary carcinoma; [4]): 71 ± 20 mg
4 | [Na]2[trans-RuCl4(Me2SO)]2(μ-bipy) [Example 8] |  |  |  |  | reduce significantly | 16 ± 1** % | 49 ± 6** % | 78 ± 5** % | 102 ± 9 | 86 ± 9 | 88 ± 7 | 77 ± 6 | 92 ± 8 | 95 ± 2 | scarce and reversible | 51 mg/kg of body weight/day | Lung metastases Number % T/C (MCa mammary carcinoma; [5]): 40%; Lung metastases weight % T/C (MCa mammary carcinoma; [5]): 31%; Lung metastases Number (MCa mammary carcinoma; [5]): 20.6 ± 7.3; Lung metastases Weight (MCa mammary carcinoma; [5]): 76 ± 31 mg
